Our source for the IC50 values is patent publication US11613542B2, “Sulfonylureas and sulfonylthioureas as NLRP3 inhibitors” (Inflazome Limited, priority 2017, dated 2023).

Assay [1] addresses T1, NLRP3 (Homo sapiens, UniProt Q96P20). The assay is described as follows: THP-1 cells pyroptosis assay. It counts as cell-based. Also on record: Seed THP-1 cells (25,000 cells/well) containing 1.0 μg/ml LPS; host or cells: THP-1 cells, LPS-primed, nigericin-stimulated. The note with it: THP-1 cells, 1.0 μg/ml LPS, compound 3 hrs, nigericin 5 μM 1 hr, resazurin readout; read-out: THP IC50. In short, it runs like this:
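THP-1 cells (25,000/well) in serum-free RPMI with 1.0 μg/ml LPS, treated with compound (8-point half-log dilution, 10 μM top, 0.1% DMSO), then nigericin 5 μM final. Viability read by resazurin (100 μM final, 1-2 h, 37° C) fluorescence Ex 560/Em 590 nm; IC50 from 4-parameter variable-slope fit.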
On the technique in general: The colour change of resazurin is a common sign of viable cells or microbes.

The target of assay [2] is T1, NLRP3. Description: Human whole blood IL1β release assay. It counts as cell-based. Also on record: Human whole blood in Li-heparin tubes was obtained from healthy donors; from tissue; host or cells: human whole blood from healthy donors, LPS-primed, nigericin-stimulated. The settings on record: human whole blood, 1 μg/ml LPS, compound 3 hrs, nigericin 10 μM 1 hr, IL-1β AlphaLisa; read-out: HWB IC50. The method, then:
Human Whole Blood IL1β Release Assay
For systemic delivery, the ability to inhibit NLRP3 when the compounds are present within the bloodstream is of great importance. For this reason, the NLRP3 inhibitory activity of a number of compounds in human whole blood was investigated in accordance with the following protocol.
Human whole blood in Li-heparin tubes was obtained from healthy donors from a volunteer donor panel. • 1. Plate out 80 μl of whole blood containing 1 μg/ml of LPS in 96-well, clear bottom cell culture plate (Corning #3585) • 2. Add 10 μl compound (8 points half-log dilution with 10 μM top dose) or vehicle (DMSO 0.1% FAC) to the appropriate wells • 3. Incubate for 3 hrs at 37° C., 5% CO2 • 4. Add 10 μl Nigericin (Sigma #N7143) (10 μM FAC) to all wells • 5. Incubate for 1 hr at 37° C., 5% CO2 • 6. At the end of the incubation period, spin plates at 300 xg for 5 mins to pellet cells and remove 20 μl of supernatant and add to 96-well v-bottom plates for IL-1β analysis (note: these plates containing the supernatants can be stored at −80° C. to be analysed at a later date) • 7. IL-1β was measured according to the manufacturer protocol (Perkin Elmer-AlphaLisa IL-1 Kit AL220F-5000) • 8. IC50 data is fitted to a non-linear regression equation (log inhibitor vs response-variable slope 4-parameters)

Structures can show the parent of a compound that is named as a salt.

T1 sequence (Q96P20 whole entry): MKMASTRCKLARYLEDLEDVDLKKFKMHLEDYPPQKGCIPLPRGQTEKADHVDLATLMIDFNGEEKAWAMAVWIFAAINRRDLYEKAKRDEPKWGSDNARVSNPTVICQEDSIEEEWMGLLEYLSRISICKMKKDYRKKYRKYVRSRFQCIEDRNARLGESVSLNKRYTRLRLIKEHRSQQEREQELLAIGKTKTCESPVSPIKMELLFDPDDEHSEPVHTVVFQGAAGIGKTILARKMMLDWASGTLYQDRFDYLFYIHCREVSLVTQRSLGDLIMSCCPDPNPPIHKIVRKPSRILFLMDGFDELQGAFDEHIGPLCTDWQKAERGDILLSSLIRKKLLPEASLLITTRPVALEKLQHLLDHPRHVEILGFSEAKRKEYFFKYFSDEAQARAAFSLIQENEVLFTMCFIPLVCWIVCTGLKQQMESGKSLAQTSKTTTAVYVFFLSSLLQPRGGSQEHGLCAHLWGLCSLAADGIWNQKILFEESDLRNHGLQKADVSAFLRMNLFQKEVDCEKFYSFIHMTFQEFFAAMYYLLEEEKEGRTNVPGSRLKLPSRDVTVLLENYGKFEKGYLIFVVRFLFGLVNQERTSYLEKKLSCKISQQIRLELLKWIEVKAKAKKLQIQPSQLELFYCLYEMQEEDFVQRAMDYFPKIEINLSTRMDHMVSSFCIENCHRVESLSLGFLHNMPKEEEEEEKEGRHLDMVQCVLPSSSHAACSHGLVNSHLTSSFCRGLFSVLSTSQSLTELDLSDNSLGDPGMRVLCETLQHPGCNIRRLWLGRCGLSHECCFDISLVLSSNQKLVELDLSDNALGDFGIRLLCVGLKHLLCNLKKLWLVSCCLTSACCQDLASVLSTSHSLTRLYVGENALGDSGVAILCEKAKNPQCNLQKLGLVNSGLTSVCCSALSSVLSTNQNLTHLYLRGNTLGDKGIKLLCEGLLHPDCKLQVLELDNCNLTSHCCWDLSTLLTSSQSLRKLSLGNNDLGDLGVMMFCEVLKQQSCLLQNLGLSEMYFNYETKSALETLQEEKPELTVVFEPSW

As a reminder, the IC50 is the concentration at which inhibition is half-maximal. `C[C@H](CN(C)C)n1ccc(S(=O)(=O)NC(=O)Nc2c3c(cc4c2CCC4)CCC3)n1` [Example 198, (R)-1-(1-(Dimethylamino)propan-2-yl)-N-((1,2,3,5,6,7-hexahydro-s-indacen-4-yl)carbamoyl)-1H-pyrazole-3-sulfonamide]: the IC50 in assay [1] was less than 640 nM; in assay [2], less than 800 nM.

In the case of `COc1cc(-c2ccc3c(c2NC(=O)NS(=O)(=O)c2ccn(CCN(C)C)n2)CCC3)ccn1` [Example 26, 1-(2-(Dimethylamino)ethyl)-N-((5-(2-methoxypyridin-4-yl)-2,3-dihydro-1H-inden-4-yl)carbamoyl)-1H-pyrazole-3-sulfonamide], the values for the concentration for half-maximal inhibition (IC50) in assay [1] and in assay [2] were less than 160 nM and less than 400 nM, respectively.

In the case of `CN(CC#N)C(=O)c1cc(S(=O)(=O)NC(=O)Nc2c3c(cc4c2CCC4)CCC3)nn1C` [Example 153, N-(Cyanomethyl)-3-(N-((1,2,3,5,6,7-hexahydro-s-indacen-4-yl)carbamoyl)sulfamoyl)-N,1-dimethyl-1H-pyrazole-5-carboxamide, partial ammonium salt], the concentration for half-maximal inhibition (IC50) in assay [1] was less than 640 nM; in assay [2], less than 1600 nM.

Turning to `CN(C)Cc1c(S(=O)(=O)NC(=O)Nc2c3c(cc4c2CCC4)CCC3)ncn1C` [Example 171, 5-((Dimethylamino)methyl)-N-((1,2,3,5,6,7-hexahydro-s-indacen-4-yl)carbamoyl)-1-methyl-1H-imidazole-4-sulfonamide], the figures for the IC50 in assay [1] and in assay [2] were less than 640 nM and less than 1600 nM, respectively.

Turning to `CN(C)CC(C)(C)n1ccc(S(=O)(=O)NC(=O)Nc2c(-c3cccnc3)ccc3c2CCC3)n1` [Example 197, 1-(1-(Dimethylamino)-2-methylpropan-2-yl)-N-((5-(pyridin-3-yl)-2,3-dihydro-1H-inden-4-yl)carbamoyl)-1H-pyrazole-3-sulfonamide], the half-maximal inhibitory concentration (IC50) in assay [1] is less than 640 nM; in assay [2], less than 400 nM.

With `CNCC(C)(C)n1ccc(S(=O)(=O)NC(=O)Nc2c(-c3ccnc(OC)c3)ccc3c2CCC3)n1` [Example 191, N-((5-(2-Methoxypyridin-4-yl)-2,3-dihydro-1H-inden-4-yl)carbamoyl)-1-(2-methyl-1-(methylamino)propan-2-yl)-1H-pyrazole-3-sulfonamide, sodium salt], the IC50 in assay [1] was less than 40 nM; in assay [2], less than 400 nM.

Consider `Cn1nc(S(=O)(=O)NC(=O)Nc2c3c(cc4c2CCC4)CCC3)cc1C(=O)N1CCC1` [Example 154, 5-(Azetidine-1-carbonyl)-N-((1,2,3,5,6,7-hexahydro-s-indacen-4-yl)carbamoyl)-1-methyl-1H-pyrazole-3-sulfonamide], for which the figures for the IC50 in assay [1] and in assay [2] were less than 160 nM and less than 3200 nM, respectively.

Consider `N#CCn1ccc(S(=O)(=O)NC(=O)Nc2c3c(cc4c2CCC4)CCC3)n1` [Example 34, 1-(Cyanomethyl)-N-((1,2,3,5,6,7-hexahydro-s-indacen-4-yl)carbamoyl)-1H-pyrazole-3-sulfonamide], for which the IC50 was less than 640 nM in assay [1] and less than 3200 nM in assay [2].

Turning to `CC(C)c1cc(F)cc(-c2cccnc2)c1NC(=O)NS(=O)(=O)c1ccn(CCN(C)C)n1` [Example 30, 1-(2-(Dimethylamino)ethyl)-N-((4-fluoro-2-isopropyl-6-(pyridin-3-yl)phenyl)carbamoyl)-1H-pyrazole-3-sulfonamide], the concentration for half-maximal inhibition (IC50) in assay [1] was less than 640 nM; in assay [2], less than 800 nM.

For `CC(C)c1cccc(C(C)C)c1NC(=O)NS(=O)(=O)c1cc(C(=O)N(C)C(C)C)n(C)n1` [Example 158, 3-(N-((2,6-Diisopropylphenyl)carbamoyl)sulfamoyl)-N-isopropyl-N,1-dimethyl-1H-pyrazole-5-carboxamide], the results for the IC50 in assay [1] and in assay [2] were less than 640 nM and less than 800 nM, respectively.

As to `COCCN(C)Cc1cc(S(=O)(=O)NC(=O)Nc2c3c(cc4c2CCC4)CCC3)nn1C` [Example 126, N-((1,2,3,5,6,7-Hexahydro-s-indacen-4-yl)carbamoyl)-5-(((2-methoxyethyl)(methyl)amino)methyl)-1-methyl-1H-pyrazole-3-sulfonamide, sodium salt], the IC50 in assay [1] is less than 640 nM; in assay [2] it was less than 3200 nM.

Regarding `CCN(C)C(=O)c1cc(S(=O)(=O)NC(=O)Nc2c(C(C)C)cc(F)cc2C(C)C)nn1C` [Example 149, N-Ethyl-3-(N-((4-fluoro-2,6-diisopropylphenyl)carbamoyl)sulfamoyl)-N,1-dimethyl-1H-pyrazole-5-carboxamide, sodium salt], the half-maximal inhibitory concentration (IC50) in assay [1] was less than 640 nM; in assay [2] it was less than 800 nM.

With `COc1cc(-c2ccc3c(c2NC(=O)NS(=O)(=O)c2ccn(C(C)(C)CN(C)C)n2)CCC3)ccn1` [Example 178, 1-(1-(Dimethylamino)-2-methylpropan-2-yl)-N-((5-(2-methoxypyridin-4-yl)-2,3-dihydro-1H-inden-4-yl)carbamoyl)-1H-pyrazole-3-sulfonamide], the results for the half-inhibitory concentration (IC50) in assay [1] and in assay [2] were less than 40 nM and less than 400 nM, respectively.

`CN(C)CC(C)(C)n1ccc(S(=O)(=O)NC(=O)Nc2c(-c3ccnc(OC4CC4)c3)ccc3c2CCO3)n1` [Example 192, N-((5-(2-Cyclopropoxypyridin-4-yl)-2,3-dihydrobenzofuran-4-yl)carbamoyl)-1-(1-(dimethylamino)-2-methylpropan-2-yl)-1H-pyrazole-3-sulfonamide, sodium salt]: the IC50 in assay [1] is less than 160 nM; in assay [2], less than 400 nM.

For the compound `CN1CC(n2ccc(S(=O)(=O)NC(=O)Nc3c4c(cc5c3CCC5)CCC4)n2)C1` [Example 12, N-((1,2,3,5,6,7-Hexahydro-s-indacen-4-yl)carbamoyl)-1-(1-methylazetidin-3-yl)-1H-pyrazole-3-sulfonamide], the IC50 was less than 2560 nM in assay [1] and less than 1600 nM in assay [2].

For the compound `CN(C)CCn1ccc(S(=O)(=O)NC(=O)Nc2c3c(cc4c2CCC4)CC=C3)n1` [Example 181, 1-(2-(Dimethylamino)ethyl)-N-((1,2,3,7-tetrahydro-s-indacen-4-yl)carbamoyl)-1H-pyrazole-3-sulfonamide, potassium salt], the 50% inhibitory concentration (IC50) in assay [1] is less than 160 nM; in assay [2], less than 800 nM.

For `CN(C)CC1(n2ccc(S(=O)(=O)NC(=O)Nc3c4c(cc5c3CCC5)CCC4)n2)CC1` [Example 202, 1-(1-((Dimethylamino)methyl)cyclopropyl)-N-((1,2,3,5,6,7-hexahydro-s-indacen-4-yl)carbamoyl)-1H-pyrazole-3-sulfonamide], the half-maximal inhibitory concentration (IC50) in assay [1] is less than 160 nM; in assay [2] it was less than 400 nM.

Turning to `CNC(=O)Cn1ccc(S(=O)(=O)NC(=O)Nc2c3c(cc4c2CCC4)CCC3)n1` [Example 2, 2-(3-(N-((1,2,3,5,6,7-Hexahydro-s-indacen-4-yl)carbamoyl)sulfamoyl)-1H-pyrazol-1-yl)-N-methylacetamide], the half-maximal inhibitory concentration (IC50) in assay [1] was less than 640 nM; in assay [2], less than 3200 nM.

As for `C[C@@H](Cn1ccc(S(=O)(=O)NC(=O)Nc2c3c(cc4c2CCC4)CCC3)n1)N(C)C` [Example 18, (S)-1-(2-(Dimethylamino)propyl)-N-((1,2,3,5,6,7-hexahydro-s-indacen-4-yl)carbamoyl)-1H-pyrazole-3-sulfonamide], the half-inhibitory concentration (IC50) in assay [1] was less than 160 nM; in assay [2], less than 800 nM.

`O=C(Nc1c2c(cc3c1CCC3)CCC2)NS(=O)(=O)c1ccn(Cc2ncco2)n1` [Example 35, N-((1,2,3,5,6,7-Hexahydro-s-indacen-4-yl)carbamoyl)-1-(oxazol-2-ylmethyl)-1H-pyrazole-3-sulfonamide]: the IC50 in assay [1] was less than 160 nM; in assay [2], less than 10000 nM.

For `CN1CC(Cn2ccc(S(=O)(=O)NC(=O)Nc3c4c(cc5c3CCC5)CCC4)n2)C1` [Example 19, N-((1,2,3,5,6,7-Hexahydro-s-indacen-4-yl)carbamoyl)-1-((1-methylazetidin-3-yl)methyl)-1H-pyrazole-3-sulfonamide], the results for the IC50 in assay [1] and in assay [2] were less than 640 nM and less than 3200 nM, respectively.

Consider `CNCCn1ccc(S(=O)(=O)NC(=O)Nc2c3c(cc4c2CCC4)CCC3)n1` [Example 13, N-((1,2,3,5,6,7-Hexahydro-s-indacen-4-yl)carbamoyl)-1-(2-(methylamino)ethyl)-1H-pyrazole-3-sulfonamide], for which the IC50 was less than 640 nM in assay [1] and less than 800 nM in assay [2].

With `CC(C)c1cccc(C(C)C)c1NC(=O)NS(=O)(=O)c1cc(C(=O)N2CCC2)n(C)n1` [Example 151, 5-(Azetidine-1-carbonyl)-N-((2,6-diisopropylphenyl)carbamoyl)-1-methyl-1H-pyrazole-3-sulfonamide], the 50% inhibitory concentration (IC50) in assay [1] was less than 640 nM; in assay [2], less than 400 nM.
